The source of these data is paper PMC3118801, “Tyrosine Kinase Syk Non-Enzymatic Inhibitors and Potential Anti-Allergic Drug-Like Compounds Discovered by Virtual and In Vitro Screening” (PLoS ONE, 2011).

Series [1] has as its system RBL-2H3 mast cells. In words: FcεRI-induced β-hexosaminidase release (mast cell degranulation). Format: cell-based, rat. The protocol: The 85 compounds were then tested in a cellular functional assay in order to evaluate their ability to inhibit the liberation of allergic mediators from mast cells. The test is based on the measure of the liberation by exocytosis of the enzyme β-hexosaminidase following the stimulation of the FcεRI, the high affinity receptor for IgE at the surface of mast cells. To this aim, RBL-2H3 mast cells were incubated with each compound for one hour at a final concentration of 20 µM, and β-hexosaminidase release following FcεRI stimulation was measured.
The mouse IgE anti-DNP monoclonal antibody 2682-I was used as hybridoma culture supernatants which contained 1 µg ml^−1 IgE. RBL-2H3 rat basophilic leukaemia cells (ATCC) were maintained as monolayer cultures in RPMI 1640 medium supplemented with 10% fetal bovine serum (Gibco). Measurements of β-hexosaminidase release in RBL-2H3 cells were performed as described, except that after 12–16 h incubation with anti-DNP IgE (0.5 µg ml^−1), cells were incubated for 90 min at 37°C in RPMI medium supplemented with the indicated concentrations of small molecules or DMSO (0.25%). Cells were challenged for 45 min with DNP-BSA (50 ng ml^−1).

Series [2] deals with T1, Syk (GST:Syk 6-242 fusion protein) (Homo sapiens, UniProt P43405).
T1 construct: Recombinant GST:Syk 6-242 fusion protein [34] was immobilized on an ELISA plate; made in house
Nature of the series: ELISA-based Antibody Displacement Assay (binding of scFv G4G11 to Syk). The following applies: 10 µM small molecule, 100 nM G4G11. The protocol: To determine the ability of the compounds to affect the binding of scFv G4G11 to Syk in vitro, we tested them individually in an ELISA-based Antibody Displacement Assay (see Materials and Methods). For this purpose, all 1000 compounds were reconstituted in DMSO, and they were tested at a final concentration of 10 µM in PBS. Compound C-13 was reconstituted in DMF and was used in parallel as a control. The capacity of each compound to inhibit the binding of G4G11 to Syk was evaluated in comparison to the binding of G4G11 to Syk in PBS (final concentration of 100 nM) containing the appropriate concentrations of DMSO or DMF.
Recombinant GST:Syk 6-242 fusion protein [34] was immobilized on an ELISA plate at final concentration of 10 µg ml^−1. For the screening assay, small molecules diluted in PBS at final concentration of 10 µM were added to the wells for one hour at RT, before adding myc-tagged scFv G4G11 at final concentration of 100 nM for one additional hour. The binding of G4G11 to Syk was evaluated by adding HRP-conjugated mAb 9E10 which detects the amino acid sequence EQKLISEEDLN of human c-myc protein located at the C-terminal end of the scFv.
In general terms: In an ELISA, binding on a coated surface is turned into a signal by an enzyme label.

Series [3] in a line: Solubility measurement in PBS by HPLC. Format: physicochemical. The following applies: aqueous buffer, kinetic from dmso stock, from 10 mM DMSO stock, 25°C. As to the method: 4 µl of a 10 mM DMSO stock solution from of each sample were dissolved in 400 µl of PBS and sonicated for 5 minutes. The samples were centrifuged for 15 minutes at 4000 rpm at 25°C, then 250 µl of each sample were transferred to a 96 well plate. 10 µl of each sample were analyzed by HPLC and the sample concentrations were calculated against a series of caffeine standards ranging from 1 to 100 µM.

Series [4] deals with T2, Syk (Homo sapiens, UniProt P43405). Nature of the series: Direct binding to Syk by fluorescence spectroscopy. As to the method:
Direct binding to Syk of a selection of these 85 compounds was investigated using fluorescence spectroscopy.
For each compound, the ChemBridge ID and the cluster to which it belongs are reported. Direct binding to Syk of some compounds was measured using fluorescence spectroscopy (Kd: dissociation constant). Antibody inhibition percentage reflects the capacity of each compound to inhibit the binding of scFv G4G11 to Syk (final concentrations of 10 µM for small molecules and 100 nM for G4G11). The ability of each compound to inhibit the liberation of allergic mediators from mast cells is measured (**: IC50 values of cell degranulation ≥20 µM). Some physicochemical properties computed with FAFDrugs2, as well as the possible ADMET problems detected by our tool are reported. The computations involved: molecular weight (MW), logP, topological polar surface area (tPSA), H-bond acceptors and donors (HBA, HBD). (PDF) Click here for additional data file.

Series [5] deals with RBL-2H3 mast cells. Nature of the series: Ionomycin-induced degranulation as control of the degranulation machinery (toxic effects). Format: cell-based, rat. The following applies: ionomycin treatment, concentrations up to 10 µM. The protocol: To address the possible toxic effects of these compounds on degranulation, we performed a dose-dependent experiment in which FcεRI-dependent degranulation of mast cells was performed in parallel with ionomycin-induced degranulation as a control of the degranulation machinery. […] The ADMET profile of our 10 bioactive compounds was analyzed further. […] In addition, the solubility was measured experimentally and the Lipinski “rule of five” descriptors were computed to probe further the molecules from cluster 2 (Table 1).
Figure 5 Compounds 7501888 and 7722851 impair FcεRI-induced mast cell degranulation. β-hexosaminidase release from mast cells was evaluated in comparison to ionomycin-induced degranulation as a control of the machinery.

The subject of series [6] is anaphylactic shock. More on the design: method as in PMID 18539317. As to conditions: administered orally to mice; cited from earlier work.
Series [7] addresses T2, Syk. More on the design: method as in PMID 18539317. The following applies: cited from earlier work.
Series [8] relates to RBL-2H3 mast cells. More on the design: method as in PMID 18539317. The following applies: cited from earlier work.
The mark [9] stands for this setting: Rattus norvegicus, Table 1, RBL-2H3, FcεRI stimulation, β-hexosaminidase release, read-out: IC50 Cell Degranulation.
Setting [10] is: Table S1, class symbol, read-out: IC50 Cell Degranulation.
The mark [11] stands for this setting: Rattus norvegicus, RBL-2H3, Table S1, class symbol, read-out: IC50 Cell Degranulation.

Values after ≈ are worked out from the molar mass of the structure shown. Read-outs that look alike come from different tables or passages of the source.

With `C=CCn1c(CNC(=O)c2cccc(C)c2)nnc1SCC(=O)Nc1cccc(C(=O)OC(C)C)c1` [compound 7783660], the IC50 (usually the concentration at which inhibition is half-maximal) in series [1] (setting [9]) is 10 µM. The “Antibody Inhibition” value in series [2] came out at 27%. The concentration in solution in series [3] (solubility at 5 min) was 12.9 µM (≈ 6.55 µg/mL). Further, in series [4] (Table 1), the Kd (usually the constant that tells how readily two partners part at equilibrium) amounted to 4.8 µM.

For the compound `CCOC(=O)c1ccc(NC(=O)CC2C(=O)N(c3ccc(Cl)cc3)C(=S)N2Cc2cccnc2)cc1` (stereo not shown) [compound 7722851], in series [5], the “toxic effect on mast cells responses” value is given as “no major toxic effect”. Moreover, the IC50 in series [1] (Rattus norvegicus, RBL-2H3, FcεRI-dependent degranulation of mast cells, read-out: IC50 (degranulation)) is 4 µM. In series [2], the “Antibody Inhibition” value is listed as 39.5%. This compound had a Kd in series [4] (Table S1) of 21.8 µM.

Consider `Cc1ccc(-c2nnc(Nc3cccc(O)c3)c3ccccc23)cc1S(=O)(=O)NC(C)(C)CO` [compound 7238569], for which, in series [1] (setting [10]), the concentration for half-maximal inhibition (IC50) was ≥ 20 µM. The “Antibody Inhibition” value in series [2] stood at 32%.

For `COc1cc(-c2nnc(SCC(=O)Nc3ccc(Cl)cc3)n2CCc2ccccc2)cc(OC)c1OC` [compound 7501888], the “toxic effect on mast cells responses” value in series [5] is recorded as “no major toxic effect”. Also, in series [1] (setting [9]), the IC50 amounted to 4 µM. Further, the “Antibody Inhibition” value in series [2] was 40%. The concentration in solution in series [3] (solubility at 5 min) was 6 µM (≈ 3.23 µg/mL). The compound also gave a Kd in series [4] (Table 1) of 8.2 µM.

For `COc1ccc(C2C(C(=O)c3cccs3)=C(O)C(=O)N2CCN2CCOCC2)cc1OC` (stereo not shown) [compound 6677533], the IC50 in series [1] (setting [11]) is ≥ 20 µM. Further, the “Antibody Inhibition” value in series [2] came out at 50%.

On to `COC(=O)c1ccc(NC(=O)CN(c2cccc(OC)c2)S(=O)(=O)c2ccccc2)cc1` [compound 7787455], for which the IC50 in series [1] (setting [11]) was ≥ 20 µM. Further, the “Antibody Inhibition” value in series [2] was 20%.

Regarding `COc1ccc(C2C(=C(O)c3ccc(F)cc3)C(=O)C(=O)N2CCN2CCOCC2)c(OC)c1` (stereo not shown) [compound 6670673], in series [1] (setting [10]), the IC50 is ≥ 20 µM. Moreover, the “Antibody Inhibition” value in series [2] was 50%.

In the case of `COc1cc(NS(=O)(=O)c2ccc(NC(C)=O)cc2)c(OC)cc1NC(=O)c1ccccc1` [compound 6853966], the IC50 in series [1] (setting [10]) was ≥ 20 µM. Also, the “Antibody Inhibition” value in series [2] was 58%.

Turning to `COc1ccc(S(=O)(=O)N(CCc2ccccc2)CC(=O)Nc2ccc(C(N)=O)cc2)cc1` [compound 6498669], in series [1] (setting [10]), the IC50 is ≥ 20 µM. Moreover, the “Antibody Inhibition” value in series [2] stood at 63%. Also, in series [4] (Table S1), the Kd was determined as 0.8 µM.

In the case of `COc1ccc(C2C(=C(O)c3ccc(F)cc3)C(=O)C(=O)N2CCN2CCOCC2)cc1OC` (stereo not shown) [compound 6654239], in series [1] (setting [10]), the IC50 was ≥ 20 µM. For the same compound, the “Antibody Inhibition” value in series [2] was found to be 50%.

Consider `COc1ccccc1C(=O)Nc1ccc(-c2nnc(SCC(=O)c3ccccc3)n2C)cc1` [compound 6282824], for which, in series [1] (setting [9]), the IC50 is 5 µM. Further, the “Antibody Inhibition” value in series [2] was 67.5%. Moreover, the solubility – broadly, the concentration that dissolves in the medium under given conditions – at 5 min in series [3] is 4.5 µM (≈ 2.06 µg/mL). Also, the Kd in series [4] (Table 1) is 5.6 µM.

As for `CCOC(=O)c1ccc(NC(=O)CSc2nnc(-c3ccco3)c(-c3ccco3)n2)cc1` [compound 7495334], the IC50 in series [1] (setting [9]) was 10 µM. Further, the “Antibody Inhibition” value in series [2] amounted to 43%. This compound also gave a solubility at 5 min in series [3] of 35.2 µM (≈ 15.9 µg/mL). The compound also returned a Kd in series [4] (Table 1) of 1.6 µM.

For `COc1ccc(C2C(=C(O)c3ccc(C)cc3)C(=O)C(=O)N2CCN2CCOCC2)cc1` (stereo not shown) [compound 6670747], the IC50 in series [1] (setting [10]) is ≥ 20 µM. Besides, the “Antibody Inhibition” value in series [2] worked out at 50%.

As to `Cc1ccc(-n2c3c(cc(C(=O)NC4CC(C)(C)NC(C)(C)C4)c2=O)C(=O)CC(C)(C)C3)cc1` [compound 6866968], in series [1] (setting [10]), the IC50 was ≥ 20 µM. Further, the “Antibody Inhibition” value in series [2] is recorded as 57.5%.

Regarding `COc1cccc(C2C(=C(O)c3ccc(C)cc3)C(=O)C(=O)N2CCCN2CCOCC2)c1` (stereo not shown) [compound 6882059], the IC50 in series [1] (setting [10]) was ≥ 20 µM. In addition, in series [2], the “Antibody Inhibition” value is 79.5%. Also, binding in series [4] (Table S1) was put at a Kd of 9.4 µM.

With `N#CC1=C(N)Oc2[nH]nc(-c3ccccc3)c2C1c1cccc(OC(=O)c2ccco2)c1` (stereo not shown) [compound 6669449], the IC50 in series [1] (setting [11]) is ≥ 20 µM. Also, the “Antibody Inhibition” value in series [2] is recorded as 42%.

`COc1cccc(C2C(=C(O)c3ccccc3)C(=O)C(=O)N2CCCN2CCOCC2)c1OC` (stereo not shown) [compound 6891745]: in series [1] (setting [10]), the IC50 is ≥ 20 µM. In series [2], the “Antibody Inhibition” value was 27.5%.

Turning to `O=C(Nc1ccccc1C(=O)N1CCCC1)c1ccc(CN2CCc3ccccc3C2)cc1` [compound 7199725], in series [1] (setting [10]), the IC50 is ≥ 20 µM. In series [2], the “Antibody Inhibition” value was 25%.

Turning to `COc1ccc(OC)c(C2C(=C(O)c3ccc(C)cc3)C(=O)C(=O)N2Cc2cccnc2)c1` (stereo not shown) [compound 6652639], the IC50 in series [1] (setting [10]) was ≥ 20 µM. The “Antibody Inhibition” value in series [2] worked out at 70.5%.

For `COC(=O)c1ccccc1-c1ccc(C=C2SC(=S)N(Cc3ccccc3)C2=O)o1` [C-13, methyl 2-{5-[(3-benzyl-4-oxo-2-thioxo-1,3-thiazolidin-5-ylidene)methyl]-2-furyl}benzoate, reference compound], the “anaphylactic shock in vivo” value in series [6] is given as “inhibits”. For the same compound, in series [1] (setting [9]), the IC50 turned out to be 2 µM. The “Antibody Inhibition” value in series [2] is recorded as 81%. Further, in series [7], the “effects on the enzymatic activity of Syk” value is “no effects”. For the same compound, the “FcεRI-induced mast cell degranulation in vitro” value in series [8] is listed as “inhibits”. In series [4] (Table 1), this compound showed a Kd of 4 µM.

As to `C=CCn1c(SCC(=O)Nc2cccc(OC)c2)nnc1C(C)NC(=O)c1ccccc1` (stereo not shown) [compound 7752193], the IC50 in series [1] (setting [9]) worked out at 10 µM. In addition, the “Antibody Inhibition” value in series [2] was 35%. Moreover, the solubility at 5 min in series [3] was 0.3 µM (≈ 0.135 µg/mL). This compound showed a Kd in series [4] (Table 1) of 8 µM.

On to `CCOc1ccc(NC(=O)CC2C(=O)N(c3ccc(OC)cc3)C(=S)N2CCN2CCOCC2)cc1` (stereo not shown) [compound 7722914], for which the IC50 in series [1] (Rattus norvegicus, RBL-2H3, Table S1, numeric values, read-out: IC50 Cell Degranulation) is 15 µM. Also, the “Antibody Inhibition” value in series [2] was found to be 19%. Besides, binding in series [4] (Table S1) was characterised by a dissociation constant (Kd) of 15.6 µM.
